In ChEMBL document CHEMBL1144883, “Design, synthesis, and SAR of potent and selective dipeptide-derived inhibitors for dipeptidyl peptidases” (J Med Chem, 2003):

Tests used:
[1] = biological target: T1, Dipeptidyl peptidase 4 (Homo sapiens, UniProt P27487)
[2] = biological target: T2, Dipeptidyl peptidase 2 (Homo sapiens, UniProt Q9UHL4)
[3] = biological target: T2, Dipeptidyl peptidase 2; remark: listed apart in the source
[4] = biological target: T1, Dipeptidyl peptidase 4; remark: listed apart in the source
[5] = biological target: T2, Dipeptidyl peptidase 2; assay: Inhibitory activity of compound against Dipeptidylpeptidase II (DPP II)

T1 sequence (P27487 whole entry): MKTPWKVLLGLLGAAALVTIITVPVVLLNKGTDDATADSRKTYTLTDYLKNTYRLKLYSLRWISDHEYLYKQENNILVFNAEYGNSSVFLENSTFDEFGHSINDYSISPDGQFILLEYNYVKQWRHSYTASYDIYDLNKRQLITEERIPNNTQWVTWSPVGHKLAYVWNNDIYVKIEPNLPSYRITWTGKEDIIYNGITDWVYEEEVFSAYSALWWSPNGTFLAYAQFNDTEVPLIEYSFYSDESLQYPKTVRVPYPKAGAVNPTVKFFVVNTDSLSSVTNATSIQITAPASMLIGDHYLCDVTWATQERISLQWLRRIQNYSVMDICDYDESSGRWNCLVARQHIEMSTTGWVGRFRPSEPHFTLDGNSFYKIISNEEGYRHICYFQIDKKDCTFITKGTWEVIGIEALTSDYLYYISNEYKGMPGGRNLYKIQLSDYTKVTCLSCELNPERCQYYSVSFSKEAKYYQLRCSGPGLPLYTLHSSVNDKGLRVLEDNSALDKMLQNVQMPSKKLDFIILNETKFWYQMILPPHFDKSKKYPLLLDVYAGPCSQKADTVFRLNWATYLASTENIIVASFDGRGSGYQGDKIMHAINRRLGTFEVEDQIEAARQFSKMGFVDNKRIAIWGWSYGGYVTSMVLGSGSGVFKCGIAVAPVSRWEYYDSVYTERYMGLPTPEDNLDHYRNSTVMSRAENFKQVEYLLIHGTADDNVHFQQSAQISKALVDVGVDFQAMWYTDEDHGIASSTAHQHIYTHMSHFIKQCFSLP

SMILES | IC50 [1] [µM] | IC50 [2] [µM] | IC50 [3] [µM] | IC50 [4] [µM] | IC50 [5] [µM]
N#CC1CCCCN1C(=O)C(N)CCCCN (stereo not drawn) | 51 | 1.5 |  |  | 
NCCCC[C@@H](N)C(=S)N1CCCCC1 | > 1000 | 0.49 |  |  | 
NCCC(N)C(=O)N1CCNCC1 (stereo not drawn) | > 1000 | 29.3 |  |  | 
CCC(C)C(N)C(=O)N1CC=CC1 (stereo not drawn) |  | 288 |  |  | 
N#C[C@@H]1CCCN1C(=O)[C@@H](N)CCCCN | 0.32 | 1 |  |  | 
NCCCC(N)C(=O)N1CCSC1 (stereo not drawn) | 81 | 0.75 |  |  | 
NCCCCC(N)C(=O)N1CCC1 (stereo not drawn) | 500 | 159 |  |  | 
CCC(C)C(N)C(=O)N1CC=CCC1 (stereo not drawn) | 52 | 52 |  |  | 
NCCCCC(N)C(=O)N1CCC(OC(=O)c2ccccc2)C1 (stereo not drawn) | > 1000 | 78.1 |  |  | 
NCC(N)C(=O)N1CCCCC1 (stereo not drawn) | > 1000 | 1.84 |  |  | 
CCC(N)C(=O)N1CCCCC1 (stereo not drawn) | 250 | 88.7 |  |  | 
NCCC(N)C(=O)N1CCCCC1 (stereo in doubt; 9.9) | 500 | 1.15 |  |  | 
CCC(C)C(N)C(=O)N1CCC(N=[N+]=[N-])C1 (stereo not drawn) | 107 | 43 |  |  | 
NCCCCC(N)C(=O)N1CCSC1 (stereo not drawn) | 318 | 3 | 3 | 318 | 
CCC(C)C(N)C(=O)N(C)C (stereo not drawn) | 360 | > 1000 |  |  | 
CCCN(C)C(=O)C(N)C(C)CC (stereo not drawn) | 377 | 213 |  |  | 
NCCCCC(N)C(=O)N1CC=CCC1 (stereo not drawn) | > 500 | 10.9 |  |  | 
NCCC(N)C(=O)N1CCCCC1 (stereo in doubt; 9.7) | > 1000 | 0.13 |  |  | 
NCC[C@@H](N)C(=O)N1CCCCC1 | > 1000 | 130 |  |  | 
N=C(N)NCCCC(N)C(=O)N1CCCCC1 (stereo not drawn) | 18.1 | 0.63 |  |  | 
NCC[C@H](N)C(=S)N1CCCCC1 | > 1000 | 0.22 |  |  | 
N#C[C@@H]1CCCCN1C(=O)C(N)CCN (stereo partly drawn) | 151 |  |  |  | 0.038
CCCCC(N)C(=O)N1CCCCC1 (stereo not drawn) | 250 | 32.4 |  |  | 
O=C(CNC1CCCC1)NC(c1ccccc1)P(=O)(Oc1ccccc1)Oc1ccccc1 (stereo not drawn) | > 125 |  |  |  | 
NCCC(N)C(=O)N1CCCCC1 (stereo in doubt; 9.10) | > 1000 | 191 |  |  | 
N[C@@H](CC(=O)O)C(=O)N1CCCC1 |  | > 500 |  |  | 
CCC(C)C(N)C(=O)N1CCCCC1 (stereo not drawn) |  | 59 |  |  | 
CCC(C)C(N)C(=O)N1CCC(O)C1 (stereo not drawn) | 93 | 299 |  |  | 
NCCCCC(N)C(=O)N1CCCCCC1 (stereo not drawn) | > 1000 | 51.9 |  |  | 

The next lines start with the values.

IC50 [1] [µM] | IC50 [2] [µM] | IC50 [3] [µM] | IC50 [4] [µM] | IC50 [5] [µM] | SMILES
> 1000 | 0.51 |  |  |  | NCCC(N)C(=O)N1CCOCC1 (stereo not drawn)
 | > 1000 |  |  |  | NCC(=O)N1CCCC1
500 | 48 |  |  |  | NCCCCC(N)C(=O)N1CCC(O)C1 (stereo not drawn)
> 500 | > 500 |  |  |  | CCC(C)C(N)C(=O)N(CC)CC (stereo not drawn)
229 | 57.1 |  |  |  | CCCC(N)C(=O)N1CCCCC1 (stereo not drawn)
247 | 1.6 |  |  |  | NCCCC[C@H](N)C(=O)N1CCCCC1 (stereo in doubt; 8.4)
135 | 2.1 |  |  |  | NCCCC[C@H](N)C(=O)N1CCCCC1 (stereo in doubt; 9.5)
217 | 9.9 |  |  |  | NC(C(=O)N1CCCCC1)C1CCCCC1 (stereo not drawn)
> 1000 | 500 |  |  |  | CCC(C)C(N)C(=O)NC1CCCC1 (stereo not drawn)
> 500 | 158 |  |  |  | CCC(C)C(N)C(=O)N1CCC(OC(=O)c2ccccc2)C1 (stereo not drawn)
> 1000 | 0.2 |  |  |  | NCCC[C@H](N)C(=S)N1CCCCC1
> 500 | > 500 |  |  |  | O=C(C1CCCS1)N1CCCC1 (stereo not drawn)
289 | 0.14 |  |  |  | NCCC(N)C(=O)N1CCSC1 (stereo not drawn)
67 | 62 |  |  |  | NC(CO)C(=O)N1CCCCC1 (stereo not drawn)
374 | 228 |  |  |  | CCC(C)C(N)C(=O)N1CCCCCC1 (stereo not drawn)
 | 4.9 |  |  |  | [N-]=[N+]=NC1CCN(C(=O)C(N)CCCCN)C1 (stereo not drawn)
167 | > 500 |  |  |  | CCC(C)C(N)C(=O)N(C)CC (stereo not drawn)
 | > 500 |  |  |  | O=C([C@@H]1CCCN1)N1CCCC1
3.5 | 111 |  |  |  | CCC(C)C(N)C(=O)N1CCC(F)C1 (stereo not drawn)
50.4 | 730 |  |  |  | CCC(C)C(N)C(=O)N1CCC1 (stereo not drawn)
